# Laboratory results from patent US20240116985A1, “STAPLED PEPTIDES AND METHODS THEREOF” (priority 2020, published 2024).
# Like-named read-outs stand apart in the source and are kept apart here.
# What was measured:
# [1] = target: T1, full-length beta-Catenin (Uniprot ID P35222) (Homo sapiens, UniProt P35222); assay: Fluorescence polarization IC50 (beta-catenin / 5FAM-TCF4 10-53 competition); format: binding
# T1 construct: 10 nM full-length beta-Catenin (Uniprot ID P35222)
# T1 sequence (P35222 1-781): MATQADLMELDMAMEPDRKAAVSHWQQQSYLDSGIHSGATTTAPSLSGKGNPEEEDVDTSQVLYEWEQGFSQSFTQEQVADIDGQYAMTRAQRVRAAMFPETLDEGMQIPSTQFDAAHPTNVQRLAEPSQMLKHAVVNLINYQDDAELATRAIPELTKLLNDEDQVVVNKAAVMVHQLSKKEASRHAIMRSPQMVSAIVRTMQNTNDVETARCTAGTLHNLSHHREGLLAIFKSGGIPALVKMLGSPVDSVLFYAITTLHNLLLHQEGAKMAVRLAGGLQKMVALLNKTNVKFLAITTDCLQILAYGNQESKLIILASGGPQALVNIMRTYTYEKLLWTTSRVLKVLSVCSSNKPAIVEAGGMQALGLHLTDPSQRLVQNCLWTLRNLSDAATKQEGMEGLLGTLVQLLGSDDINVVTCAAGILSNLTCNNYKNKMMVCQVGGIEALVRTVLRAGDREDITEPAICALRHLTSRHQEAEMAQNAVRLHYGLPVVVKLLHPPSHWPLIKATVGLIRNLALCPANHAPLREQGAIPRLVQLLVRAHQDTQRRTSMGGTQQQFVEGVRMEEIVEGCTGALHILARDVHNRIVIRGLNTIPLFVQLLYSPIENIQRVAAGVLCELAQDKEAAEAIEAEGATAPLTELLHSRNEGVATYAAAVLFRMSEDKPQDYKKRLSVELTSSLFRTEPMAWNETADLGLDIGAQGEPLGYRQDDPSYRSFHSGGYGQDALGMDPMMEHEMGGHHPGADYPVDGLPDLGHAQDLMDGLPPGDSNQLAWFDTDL
# [2] = CHI Log D procedure; format: physicochemical; details: pH 7.4
# [3] = Solubility in PBS; format: physicochemical
# Outline: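 HPLC quantitation of peptide remaining in the PBS supernatant after ultracentrifugation, referenced to a 50 μM solution in DMSO.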
# [4] = target: T2, beta-catenin/TCF4 engagement (Homo sapiens, UniProt P35222); assay: Nano-BRET target engagement assay (B-cat-Halo & TCF4-Luc in HEK293 cells); format: cell-based; details: for IC50: absolute IC50, read-out: NanoBRET Abs IC50
# T2 construct: expressed in transfected cells; host or cells: HEK293
# T2 sequence (P35222 1-781): T1 sequence (P35222 1-781)
# [5] = fluorescence polarization, read-out: beta-Catenin FP IC50
Structure (SMILES),"IC50 [1, 5] [nM]",IC50 ([1]; read-out: FP EC50) [nM],CHI Log D [2],Solubility [3] [µM],IC50 [4] [nM],"inhibition at 10 µM ([4]; HEK293, @ 10 uM, read-out: NanoBRET % inh @ 10 uM) [%]"
"CC(=O)N1CCC[C@]12CC=CCCCC1(CCCC=CCCCCCC[C@@](C)(C(=O)N[C@@H](Cc3ccsc3)C(=O)N[C@@H](Cc3csc4ccccc34)C(=O)N[C@@H](CCC(N)=O)C(N)=O)NC(=O)[C@H](CC(N)=O)NC(=O)[C@H](Cc3ccccc3)NC(=O)[C@H](C)NC(=O)[C@H](C)NC(=O)[C@H](CC(=O)O)NC(=O)[C@H](CC(=O)O)NC1=O)NC(=O)[C@H](CC(C)(C)C)NC(=O)[C@H](CC(=O)O)NC2=O (stereo partly drawn) [I-678, Ac-PL3-Asp-Npg-B5-Asp-Asp-Ala-Ala-Phe-Asn-S8-3Thi-BztA-Gln-NH2]",26,26,2.329,49,16800,–
"CC(=O)N1CCC[C@]12CC=CCCCC1(CCCC=CCCCCCC[C@@](C)(C(=O)N[C@@H](Cc3ccsc3)C(=O)N[C@@H](Cc3csc4ccccc34)C(=O)N[C@@H](CCC(N)=O)C(N)=O)NC(=O)[C@H](CC(N)=O)NC(=O)[C@H](Cc3ccccc3)NC(=O)[C@H](C)NC(=O)[C@H](C)NC(=O)[C@H](CC(=O)O)NC(=O)[C@H](CC(=O)O)NC1=O)NC(=O)[C@H](CC(C)C)NC(=O)[C@H](CC(=O)O)NC2=O (stereo partly drawn) [I-680, Ac-PL3-Asp-Leu-B5-Asp-Asp-Ala-Ala-Phe-Asn-S8-3Thi-BztA-Gln-NH2]",32,32,2.215,47,34400,–
"CC(=O)N1CCC[C@]12CC=CCCCC1(CCCC=CCCCCCC[C@@](C)(C(=O)N[C@@H](Cc3ccsc3)C(=O)N[C@@H](Cc3csc4ccccc34)C(=O)N[C@@H](CCC(N)=O)C(N)=O)NC(=O)[C@H](CC(N)=O)NC(=O)[C@H](Cc3ccccc3)NC(=O)[C@H](C)NC(=O)[C@H](C)NC(=O)[C@H](CCC(=O)O)NC(=O)[C@H](CC(=O)O)NC1=O)NC(=O)[C@H](CC(C)(C)C)NC(=O)[C@H](CC(=O)O)NC2=O (stereo partly drawn) [I-683, Ac-PL3-Asp-Npg-B5-Asp-Glu-Ala-Ala-Phe-Asn-S8-3Thi-BztA-Gln-NH2]",19,19,2.44,37,6700,–
"CC(=O)N1CCC[C@]12CC=CCCCC1(CCCC=CCCCOC(=O)N3CC[C@@](C(=O)N[C@@H](Cc4ccccc4)C(=O)N[C@@H](Cc4csc5ccccc45)C(=O)N[C@@H](CCC(N)=O)C(N)=O)(C3)NC(=O)[C@H](CC(N)=O)NC(=O)[C@H](Cc3ccccc3)NC(=O)[C@H](C)NC(=O)[C@H](C)NC(=O)[C@H](CCC(=O)O)NC(=O)[C@H](CC(=O)O)NC1=O)NC(=O)[C@H](CC(C)(C)C)NC(=O)[C@H](CC(=O)O)NC2=O (stereo partly drawn) [I-684, Ac-PL3-Asp-Npg-B5-Asp-Glu-Ala-Ala-Phe-Asn-PyrS2-Phe-BztA-Gln-NH2]",15,15,2.037,44,14300,–

# Compounds with a lower IC50 [1, 5], results first:
"IC50 [1, 5] [nM]",IC50 ([1]; read-out: FP EC50) [nM],CHI Log D [2],Solubility [3] [µM],IC50 [4] [nM],"inhibition at 10 µM ([4]; HEK293, @ 10 uM, read-out: NanoBRET % inh @ 10 uM) [%]",Structure (SMILES)
7,7,2.382,48,17100,44.8,"CC(=O)N1CCC[C@]12CC=CCCCC1(CCCC=CCCCCCC[C@@](C)(C(=O)N[C@@H](Cc3ccsc3)C(=O)N[C@@H](Cc3csc4ccccc34)C(=O)N[C@@H](CCC(N)=O)C(N)=O)NC(=O)[C@H](CC(N)=O)NC(=O)[C@H](Cc3ccccc3)NC(=O)[C@H](C)NC(=O)[C@H](C)NC(=O)[C@H](CC(=O)O)NC(=O)[C@H](CC(=O)O)NC1=O)NC(=O)[C@H](CC(C)(C)C)NC(=O)[C@H](CC(=O)O)NC2=O (stereo partly drawn) [I-679, Ac-PL3-Asp-Npg-B5-Asp-Asp-Ala-Ala-Phe-Asn-S8-3Thi-BztA-Gln-NH2]"
12,12,2.273,48,25100,–,"CC(=O)N1CCC[C@]12CC=CCCCC1(CCCC=CCCCCCC[C@@](C)(C(=O)N[C@@H](Cc3ccsc3)C(=O)N[C@@H](Cc3csc4ccccc34)C(=O)N[C@@H](CCC(N)=O)C(N)=O)NC(=O)[C@H](CC(N)=O)NC(=O)[C@H](Cc3ccccc3)NC(=O)[C@H](C)NC(=O)[C@H](C)NC(=O)[C@H](CC(=O)O)NC(=O)[C@H](CC(=O)O)NC1=O)NC(=O)[C@H](CC(C)C)NC(=O)[C@H](CC(=O)O)NC2=O (stereo partly drawn) [I-681, Ac-PL3-Asp-Leu-B5-Asp-Asp-Ala-Ala-Phe-Asn-S8-3Thi-BztA-Gln-NH2]"
